Measured values reported in US20120108665A1, “METHODS AND COMPOSITIONS FOR TREATING OPHTHALMIC CONDITIONS” (REVISION THERAPEUTICS, INC., priority 2009, published 2012).

Assays:
[1] = tested on: serum RBP-retinol; experiment: Serum retinol monitoring in Ins2Akita/+ diabetic mice fed HPR-supplemented diet; assay type: in vivo, mouse; conditions: diet containing HPR 0.1% w/w ad libitum, retinol at day 30 (FIG. 1A)
Method: (§1) Ins2Akita littermates (aged 2-5 months) were divided into two groups. One group received a specialized rodent diet containing HPR (0.1%, w/w). The second group received a rodent chow which was not supplemented with HPR. Mice ingested these diets ad libitum for 3 months (except where indicated). Serum retinol and glucose levels were regularly monitored throughout the treatment period. At the end of the treatment period, the mice were euthanized and eyecups were prepared for biochemical and immunohistochemical analyses.
(§2) Serum levels of retinol at day 30 (panel A) and glucose at 7-day intervals (panel B) are shown. The dashed line in panel B indicates mean glucose levels in wild-type mice.

[2] = tested on: Ins2Akita/+ mice; experiment: Serum glucose (hyperglycemia) monitoring in Ins2Akita/+ diabetic mice fed HPR-supplemented diet; assay type: in vivo, mouse; conditions: diet containing HPR 0.1% w/w ad libitum, glucose at 7-day intervals (FIG. 1B)
Method: as §1, §2

[3] = tested on: ganglion cell layer; experiment: Retinal histology (toludine blue staining) of ganglion cell layer in Ins2Akita/+ mice; assay type: in vivo, mouse; conditions: HPR diet 0.1% w/w
Method: as §1
(§3) Panels A and D are from Ins2Akita/+ mice fed the control diet. Panels B and E are from Ins2/Akita/+ mice fed the HPR-supplemented diet. Panels C and E are from age-matched wild-type mice. Arrows in panels A and D show disruption of the GCL and RAGE immunoreactivity.

[4] = tested on: RAGE; experiment: RAGE immunoreactivity in retina tissue sections of Ins2Akita/+ mice; assay type: in vivo, mouse; conditions: HPR diet 0.1% w/w, 3 months (FIG. 2)
Method: as §1, §3

[5] = tested on: advanced glycation end products (AGEs); experiment: AGE immunoreactivity in retina tissue sections of Ins2Akita/+ mice; assay type: in vivo, mouse; conditions: HPR diet 0.1% w/w, 3 months (FIG. 3)
Method: as §1

[6] = tested on: phosphorylated p38 MAPK; experiment: Phosphorylated p38 MAPK immunoreactivity in RPE of Ins2Akita/+ mice; assay type: in vivo, mouse; conditions: HPR diet 0.1% w/w, 3 months (FIG. 4)
Method: as §1
Tissue sections from these mice were probed for phosphorylated p38 MAPK, a mediator of apoptotic cell death.

[7] = tested on: VEGF; experiment: VEGF expression in retina of Ins2Akita/+ mice; assay type: in vivo, mouse; conditions: HPR diet 0.1% w/w, 3 months (FIG. 5)
Method: as §1

[8] = tested on: primary human retinal microvascular endothelial cells; experiment: In vitro capillary tube formation assay; assay type: cell-based; conditions: HPR 10 mM; VEGF 10 ng/ml pretreatment; cells on Cultrex BME in 0.1% FBS (FIG. 6)
Excerpt: (§4) We set out to directly test the angiogenic properties of HPR in three different models of ocular angiogenesis. In the first, we induced angiogenesis in vitro by exposing primary human retinal microvascular endothelial cells to growth factors in the tube formation assay. Second, we utilized slow release pellets containing growth factor to induce angiogenesis in the corneal micropocket assay. Next, we looked at the effect of HPR treatment on angiogenesis in a transgenic animal model of early-onset retinal neovascularization, the very-low-density lipoprotein receptor (VLDLR) knockout mouse (vldlr−/−).
In parallel experiments, cells were pretreated with VEGF (10 ng/ml) and HPR ([…]) respectively. The cells were then plated in 0.1% FBS or 0.1% FBS-[…] HPR.

[9] = tested on: wild type Balb/c mice; experiment: In vivo corneal micropocket assay (bFGF pellets); design: species or system mouse; conditions: 0.1% (w/w) HPR chow 8 weeks, bFGF ~80 ng/pellet, assessed 5 days later, FITC-dextran (FIG. 7)
Excerpt: as §4
At the end of this period, standardized slow release pellets containing bFGF (˜80 ng/pellet) were surgically inserted into the normally avascular corneas of the mice in the study. Blank pellets were implanted in the left eye. Vessel formation was assessed 5 days later when the mice were perfused with FITC-dextran and the eyes were enucleated and photographed. FIG. 7: Bright field (A-F) and fluorescence (G-L) images showing vessel growth (arrows) and the approximate location of the pellets (ovals).

[10] = tested on: VLDLR-/- knockout mice; experiment: Retinal vascular leakage in VLDLR-/- knockout mice (retinal neovascularization model); assay type: in vivo, mouse; conditions: 0.1% HPR (w/w) chow 8 weeks, retinal flat mounts after FITC-dextran perfusion (FIG. 8)
Excerpt: as §4
VLDLR^−/− mice were fed either control or 0.1% HPR (w/w)-supplemented chow ad libitum for 8 weeks. The extent of retinal leakage was then assessed in retinal flat mounts after FITC-dextran perfusion.

SMILES: CC1=C(/C=C/C(C)=C/C=C/C(C)=C/C(=O)Nc2ccc(O)cc2)C(C)(C)CCC1 [HPR, N-(4-hydroxyphenyl)retinamide]
- serum RBP-retinol [1]: significantly reduces
- effect on hyperglycemia (serum glucose) [2]: has no effect
- preservation of ganglion cell layer and inner nuclear layer ([3]; 3 months (FIG. 5)): remarkable preservation
- integrity of the ganglion cell layer (GCL) ([3]; 3 months, toludine blue staining (FIG. 2)): well preserved
- RAGE immunoreactivity in the GCL [4]: very little
- AGE immunoreactivity in the retina [5]: significantly reduced
- p38 MAPK immunoreactivity in the RPE [6]: barely detectable
- VEGF expression in all retina sublayers [7]: dramatically reduced
- tube formation [8]: reduced
- bFGF-induced corneal vessel growth (angiogenic response) [9]: striking reduction
- extent of retinal vascular leakage [10]: significant reduction
